Source: the supplement of paper PMC10307832

Tests used:
Assay in all cases: relative viability (nuclei count vs DMSO), 5 days (fraction); higher = more cells survive
Serdemetan + Lapatinib = compound: c1ccc2c(CCNc3ccc(Nc4ccncc4)cc3)c[nH]c2c1 [Serdemetan] + CS(=O)(=O)CCNCc1ccc(-c2ccc3ncnc(Nc4ccc(OCc5cccc(F)c5)c(Cl)c4)c3c2)o1 [Lapatinib] (partner 2 µM)
Method in brief: (§1)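 Lung cancer cell lines in 1536-well plates got either a single drug or a fixed anchor-drug dose together with five library-drug doses (not always all listed) in √10 steps, by pin tool, on the day after seeding. Nuclei were counted after 5 days, and relative viability is the treated-to-vehicle ratio of nuclei counts. Values are medians of duplicate plates.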

Selisistat + Pictilisib = compound: C1CC(C2=C(C1)C3=C(N2)C=CC(=C3)Cl)C(=O)N [Selisistat] + CS(=O)(=O)N1CCN(Cc2cc3nc(-c4cccc5[nH]ncc45)nc(N4CCOCC4)c3s2)CC1 [Pictilisib] (partner 1 µM)
Method in brief: as §1

Selisistat + Lapatinib = compound: C1CC(C2=C(C1)C3=C(N2)C=CC(=C3)Cl)C(=O)N [Selisistat] + CS(=O)(=O)CCNCc1ccc(-c2ccc3ncnc(Nc4ccc(OCc5cccc(F)c5)c(Cl)c4)c3c2)o1 [Lapatinib] (partner 2 µM)
Method in brief: as §1

Serdemetan + Alpelisib = compound: c1ccc2c(CCNc3ccc(Nc4ccncc4)cc3)c[nH]c2c1 [Serdemetan] + Cc1nc(NC(=O)N2CCC[C@H]2C(N)=O)sc1-c1ccnc(C(C)(C)C(F)(F)F)c1 [Alpelisib] (partner 2 µM)
Method in brief: as §1

Cell Line: HOP-62
- relative viability (Serdemetan + Lapatinib; first compound 0.04 µM): 0.862
- relative viability (Serdemetan + Lapatinib; first compound 0.1265 µM): 1.06
- relative viability (Serdemetan + Lapatinib; first compound 0.4 µM): 0.937
- relative viability (Serdemetan + Lapatinib; first compound 1.265 µM): 0.791
- relative viability (Serdemetan + Lapatinib; first compound 4 µM): 0.89
- relative viability (Selisistat + Pictilisib; first compound 0.4 µM): 0.865
- relative viability (Selisistat + Pictilisib; first compound 1.265 µM): 0.651
- relative viability (Selisistat + Pictilisib; first compound 4 µM): 0.449
- relative viability (Selisistat + Pictilisib; first compound 12.65 µM): 0.619
- relative viability (Selisistat + Pictilisib; first compound 40 µM): 0.935
- relative viability (Selisistat + Lapatinib; first compound 0.4 µM): 0.974
- relative viability (Selisistat + Lapatinib; first compound 1.265 µM): 1.03
- relative viability (Selisistat + Lapatinib; first compound 4 µM): 0.96
- relative viability (Selisistat + Lapatinib; first compound 12.65 µM): 0.884
- relative viability (Selisistat + Lapatinib; first compound 40 µM): 1.14
- relative viability (Serdemetan + Alpelisib; first compound 0.04 µM): 0.966
- relative viability (Serdemetan + Alpelisib; first compound 0.1265 µM): 0.914
- relative viability (Serdemetan + Alpelisib; first compound 0.4 µM): 0.947
- relative viability (Serdemetan + Alpelisib; first compound 1.265 µM): 0.76
- relative viability (Serdemetan + Alpelisib; first compound 4 µM): 0.841

Cell Line: CAL-12T
- relative viability (Serdemetan + Lapatinib; first compound 0.1265 µM): 0.859
- relative viability (Serdemetan + Lapatinib; first compound 1.265 µM): 0.599
- relative viability (Serdemetan + Lapatinib; first compound 4 µM): 0.579
- relative viability (Selisistat + Pictilisib; first compound 0.4 µM): 0.384
- relative viability (Selisistat + Pictilisib; first compound 1.265 µM): 0.388
- relative viability (Selisistat + Pictilisib; first compound 12.65 µM): 0.6
- relative viability (Selisistat + Pictilisib; first compound 40 µM): 0.314
- relative viability (Selisistat + Lapatinib; first compound 0.4 µM): 0.628
- relative viability (Selisistat + Lapatinib; first compound 1.265 µM): 0.704
- relative viability (Selisistat + Lapatinib; first compound 12.65 µM): 0.627
- relative viability (Selisistat + Lapatinib; first compound 40 µM): 0.646
- relative viability (Serdemetan + Alpelisib; first compound 0.04 µM): 1.11
- relative viability (Serdemetan + Alpelisib; first compound 0.1265 µM): 1.5
- relative viability (Serdemetan + Alpelisib; first compound 0.4 µM): 1.23
- relative viability (Serdemetan + Alpelisib; first compound 4 µM): 1.18

Cell Line: NCI-H520
- relative viability (Serdemetan + Lapatinib; first compound 0.04 µM): 0.791
- relative viability (Serdemetan + Lapatinib; first compound 0.1265 µM): 0.91
- relative viability (Serdemetan + Lapatinib; first compound 0.4 µM): 0.813
- relative viability (Serdemetan + Lapatinib; first compound 1.265 µM): 0.813
- relative viability (Serdemetan + Lapatinib; first compound 4 µM): 0.614
- relative viability (Selisistat + Pictilisib; first compound 0.4 µM): 0.262
- relative viability (Selisistat + Pictilisib; first compound 1.265 µM): 0.304
- relative viability (Selisistat + Pictilisib; first compound 4 µM): 0.15
- relative viability (Selisistat + Pictilisib; first compound 12.65 µM): 0.294
- relative viability (Selisistat + Pictilisib; first compound 40 µM): 0.354
- relative viability (Selisistat + Lapatinib; first compound 0.4 µM): 0.811
- relative viability (Selisistat + Lapatinib; first compound 1.265 µM): 0.898
- relative viability (Selisistat + Lapatinib; first compound 4 µM): 0.814
- relative viability (Selisistat + Lapatinib; first compound 12.65 µM): 0.751
- relative viability (Selisistat + Lapatinib; first compound 40 µM): 0.766
- relative viability (Serdemetan + Alpelisib; first compound 0.04 µM): 0.729
- relative viability (Serdemetan + Alpelisib; first compound 0.1265 µM): 0.807
- relative viability (Serdemetan + Alpelisib; first compound 0.4 µM): 1.09
- relative viability (Serdemetan + Alpelisib; first compound 1.265 µM): 0.726
- relative viability (Serdemetan + Alpelisib; first compound 4 µM): 0.786

Cell Line: NCI-H1755
- relative viability (Serdemetan + Lapatinib; first compound 0.04 µM): 0.984
- relative viability (Serdemetan + Lapatinib; first compound 0.1265 µM): 1.01
- relative viability (Serdemetan + Lapatinib; first compound 0.4 µM): 0.989
- relative viability (Serdemetan + Lapatinib; first compound 1.265 µM): 0.548
- relative viability (Serdemetan + Lapatinib; first compound 4 µM): 0.714
- relative viability (Selisistat + Pictilisib; first compound 0.4 µM): 0.439
- relative viability (Selisistat + Pictilisib; first compound 1.265 µM): 0.414
- relative viability (Selisistat + Pictilisib; first compound 4 µM): 0.363
- relative viability (Selisistat + Pictilisib; first compound 12.65 µM): 0.451
- relative viability (Selisistat + Pictilisib; first compound 40 µM): 0.443
- relative viability (Selisistat + Lapatinib; first compound 0.4 µM): 1.12
- relative viability (Selisistat + Lapatinib; first compound 1.265 µM): 1.15
- relative viability (Selisistat + Lapatinib; first compound 4 µM): 1.01
- relative viability (Selisistat + Lapatinib; first compound 12.65 µM): 1.01
- relative viability (Selisistat + Lapatinib; first compound 40 µM): 1.13
- relative viability (Serdemetan + Alpelisib; first compound 0.04 µM): 0.893
- relative viability (Serdemetan + Alpelisib; first compound 0.1265 µM): 0.898
- relative viability (Serdemetan + Alpelisib; first compound 0.4 µM): 0.815
- relative viability (Serdemetan + Alpelisib; first compound 1.265 µM): 0.499
- relative viability (Serdemetan + Alpelisib; first compound 4 µM): 0.456

Cell Line: NCI-H2023
- relative viability (Serdemetan + Lapatinib; first compound 0.04 µM): 0.709
- relative viability (Serdemetan + Lapatinib; first compound 0.1265 µM): 0.861
- relative viability (Serdemetan + Lapatinib; first compound 0.4 µM): 0.742
- relative viability (Serdemetan + Lapatinib; first compound 1.265 µM): 0.387
- relative viability (Serdemetan + Lapatinib; first compound 4 µM): 0.253
- relative viability (Selisistat + Pictilisib; first compound 0.4 µM): 0.25
- relative viability (Selisistat + Pictilisib; first compound 1.265 µM): 0.265
- relative viability (Selisistat + Pictilisib; first compound 4 µM): 0.201
- relative viability (Selisistat + Pictilisib; first compound 12.65 µM): 0.255
- relative viability (Selisistat + Pictilisib; first compound 40 µM): 0.222
- relative viability (Selisistat + Lapatinib; first compound 0.4 µM): 0.703
- relative viability (Selisistat + Lapatinib; first compound 1.265 µM): 0.812
- relative viability (Selisistat + Lapatinib; first compound 4 µM): 0.537
- relative viability (Selisistat + Lapatinib; first compound 12.65 µM): 0.859
- relative viability (Selisistat + Lapatinib; first compound 40 µM): 0.758
- relative viability (Serdemetan + Alpelisib; first compound 0.04 µM): 0.613
- relative viability (Serdemetan + Alpelisib; first compound 0.1265 µM): 0.651
- relative viability (Serdemetan + Alpelisib; first compound 0.4 µM): 0.521
- relative viability (Serdemetan + Alpelisib; first compound 1.265 µM): 0.375
- relative viability (Serdemetan + Alpelisib; first compound 4 µM): 0.266

Cell Line: NCI-H2009
- relative viability (Serdemetan + Lapatinib; first compound 0.04 µM): 0.851
- relative viability (Serdemetan + Lapatinib; first compound 0.1265 µM): 1.03
- relative viability (Serdemetan + Lapatinib; first compound 0.4 µM): 0.889
- relative viability (Serdemetan + Lapatinib; first compound 1.265 µM): 0.822
- relative viability (Serdemetan + Lapatinib; first compound 4 µM): 0.691
- relative viability (Selisistat + Pictilisib; first compound 0.4 µM): 0.928
- relative viability (Selisistat + Pictilisib; first compound 1.265 µM): 0.827
- relative viability (Selisistat + Pictilisib; first compound 4 µM): 0.323
- relative viability (Selisistat + Pictilisib; first compound 12.65 µM): 0.609
- relative viability (Selisistat + Pictilisib; first compound 40 µM): 0.795
- relative viability (Selisistat + Lapatinib; first compound 0.4 µM): 0.903
- relative viability (Selisistat + Lapatinib; first compound 1.265 µM): 0.961
- relative viability (Selisistat + Lapatinib; first compound 4 µM): 0.454
- relative viability (Selisistat + Lapatinib; first compound 12.65 µM): 0.826
- relative viability (Selisistat + Lapatinib; first compound 40 µM): 0.987
- relative viability (Serdemetan + Alpelisib; first compound 0.04 µM): 1.18
- relative viability (Serdemetan + Alpelisib; first compound 0.1265 µM): 1.11
- relative viability (Serdemetan + Alpelisib; first compound 0.4 µM): 1.08
- relative viability (Serdemetan + Alpelisib; first compound 1.265 µM): 1.12
- relative viability (Serdemetan + Alpelisib; first compound 4 µM): 0.964
